Results as given in ChEMBL document CHEMBL5226324, “Exploring Translocator Protein (TSPO) Medicinal Chemistry: An Approach for Targeting Radionuclides and Boron Atoms to Mitochondria” (J Med Chem, 2021).

Key:
[1] = Displacement of [3H]flunitrazepam from CBR receptor in rat brain cortex membrane incubated for 20 mins by liquid scintillation spectrometer method; type: cell membranes, Cerebral cortex
Translocator protein [2] = target: T1, Translocator protein (Homo sapiens, UniProt P30536); assay: Binding affinity to TSPO receptor (unknown origin)
T1 sequence (P30536 whole entry): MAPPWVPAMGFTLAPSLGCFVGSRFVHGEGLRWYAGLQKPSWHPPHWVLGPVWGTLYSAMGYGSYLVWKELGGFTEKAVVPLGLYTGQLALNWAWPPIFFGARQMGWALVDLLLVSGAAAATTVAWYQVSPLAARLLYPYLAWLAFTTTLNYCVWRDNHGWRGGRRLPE

Translocator protein [3] = target: T2, Translocator protein (Rattus norvegicus, UniProt P16257); assay: Displacement of [3H]PK11195 from TSPO receptor in rat brain cortex membrane incubated for 120 mins by liquid scintillation spectrometer method; type: cell membranes, Cerebral cortex
T2 sequence (P16257 whole entry, looked up): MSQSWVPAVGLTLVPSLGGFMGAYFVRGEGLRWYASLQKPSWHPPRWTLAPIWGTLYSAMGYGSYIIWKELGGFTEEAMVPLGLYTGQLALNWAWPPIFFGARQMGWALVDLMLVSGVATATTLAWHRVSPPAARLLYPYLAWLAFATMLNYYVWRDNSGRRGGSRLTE

Translocator protein [4] = target: T1, Translocator protein; assay: Binding affinity to human TSPO
Translocator protein [5] = target: T2, Translocator protein; assay: Displacement of [3H]PK11195 from TSPO receptor in rat brain cortex mitochondrial membrane incubated for 60 mins by liquid scintillation spectrometer method; type: cell membranes
[6] = Lipophilicity, log P of the compound at pH 7.4; type: physicochemical; details: buffer
Translocator protein [7] = target: T2, Translocator protein; assay: Displacement of [3H]PK11195 from TSPO receptor in rat brain cortex mitochondrial membrane by liquid scintillation spectrometer method; type: cell membranes
[8] = Binding affinity to CBR (unknown origin); design: species or system Homo sapiens
[9] = Metabolic stability in rat brain assessed as parent compound remaining after 30 mins by radio-HPLC analysis; type: ADME, tissue-based; details: read-out: Stability

## CCCN(CCC)C(=O)/C=C1\c2nc3ccccc3cc2C(=O)N1c1ccc(Cl)cc1
[1]; read-out: IC50
  IC50: > 1000 nM

## CCCCCCN(CCCCCC)C(=O)CC1c2ncccc2C(=O)N1c1ccc(Cl)cc1 (stereo not given)
[1]; read-out: IC50
  IC50: > 1000 nM

## CCCN(CCC)C(=O)/C=C1\c2ncccc2C(=O)N1c1ccc(Cl)cc1
[1]; read-out: IC50
  IC50: > 1000 nM

## CCCCCCN(CCCCCC)C(=O)/C=C1\c2ncccc2C(=O)N1c1ccc(Cl)cc1
[1]; read-out: IC50
  IC50: > 1000 nM

## CCN(CC)C(=O)[C@H]1CCCc2c1c1c(OC)cccc1n2CC[18F]
Translocator protein [2]
  Ki: 2.4 nM

## CCCCCCN(CCCCCC)C(=O)/C=C1\c2nc3ccccc3cc2C(=O)N1c1ccc(Cl)cc1
[1]; read-out: IC50
  IC50: > 1000 nM

## CCCCCCN(CCCCCC)C(=O)CC1c2nc3ccccc3cc2C(=O)N1c1ccc(Cl)cc1 (stereo not given)
[1]; read-out: IC50
  IC50: > 1000 nM

## O=C1c2cccnc2CN1c1ccc(Cl)cc1
[1]; read-out: IC50
  IC50: > 1000 nM

## CCCN(CCC)C(=O)CC1c2ncccc2C(=O)N1c1ccc(Cl)cc1 (stereo not given)
[1]; read-out: IC50
  IC50: 860 nM

## CCCCN1Cc2c(nc3ccccc3c2-c2ccccc2)C1=O
Translocator protein [3]
  IC50: > 10000 nM

## CN(Cc1ccccc1)C(=O)c1nc2ccccc2c2c1CCOc1ccccc1-2
Translocator protein [3]
  IC50: 10 nM

## CCC(C)N(C)C(=O)c1cc2ccccc2c(-c2ccccc2[123I])n1 (stereo not given)
Translocator protein [4]
  Kd: 10 nM

## CCN(CC)C(=O)Cc1c(-c2ccc([123I])cc2)nc2ccc(Cl)cn12
Translocator protein [5]
  Kd: 3.84 nM

## CCCN(CCC)C(=O)CC1c2nc3ccccc3cc2C(=O)N1c1ccccc1 (stereo not given)
[1]; read-out: IC50
  IC50: > 1000 nM
Translocator protein [3]
  IC50: > 1000 nM

## CCCCN1Cc2c(nc3ccccc3c2-c2ccccc2F)C1=O
Translocator protein [3]
  IC50: > 10000 nM

## CC(=O)N(Cc1ccccc1OCC[18F])c1cnccc1Oc1ccccc1
[6]
  logD: 2.99
Translocator protein [7]
  Ki: 0.07 nM

## CCCN(CCC)C(=O)Cc1c(-c2ccc(Cl)cc2)[nH]c2ccc(Cl)cc12
[1]; read-out: IC50
  IC50: > 1000 nM

## CCCN(CCC)C(=O)Cc1c(-c2ccc(Cl)cc2)nc2ccc(Cl)cn12 [ALPIDEM]
[1]; read-out: IC50
  IC50: 1 nM
Translocator protein [3]
  IC50: 0.5 nM
[8]
  Ki: 1 nM

## CN1C(=O)CN=C(c2ccccc2)c2cc(Cl)ccc21 [DIAZEPAM]
[1]
  IC50: 5.6 nM

## CCN(CC)C(=O)Cc1c(-c2ccc(OCCF)cc2)nn2c(C)cc(C)nc12 [DPA-714]
[9]
  remaining at 0.5 h: < 3%

## CN1C(=O)CN=C(c2ccc(Cl)cc2)c2cc(Cl)ccc21 [RO-54864]
Translocator protein [2]
  Kd: 1.1 nM
